Experimental data taken from patent US8828988B2 (Tetraphase Pharmaceuticals, Inc., priority 2009, dated 2014).
In brackets after ≈: the same amount, converted by molar mass. Read-outs that look alike come from different tables or passages of the source.

Legend:
[1] = tested on: E. coli DH10B(pBAD-tetM), expressing tet(M); assay: MIC against recombinant E. coli expressing tet(M); assay type: cell-based; conditions: for MIC: Escherichia coli; for Ratio (TetM induced / Uninduced): ratio of MICs; for Effect of expression of (tet)M on activity: result in words
Text: (§1) Constructs were transformed into E. coli DH10B for expression. Recombinant strains were pre-induced under optimized conditions with L-arabinose prior to use as inocula in CLSI standardized MIC assays.

[2] = tested on: Staphylococcus aureus SA101, ATCC 29213, MSSA; assay: MIC assay, SA101; assay type: cell-based; conditions: Table 8, read-out: MIC S. aureus ATCC 29213
[3] = tested on: Escherichia coli EC107, ATCC 25922; assay: MIC assay, EC107; assay type: cell-based; conditions: ATCC25922, Table 8, read-out: MIC E. coli ATCC 25922
[4] = tested on: E. coli S30 extract system, coupled in vitro transcription/translation, firefly luciferase readout; assay: In vitro transcription/translation (TnT) assay; assay type: biochemical; conditions: for IC50, in vitro transcription/translation system: E. coli S30 extract, luciferase readout
[5] = tested on: S. aureus clinical isolates; assay: MIC50, MIC90 and MIC range, panel of clinical isolates (Example 20); assay type: cell-based; conditions: MRSA, 30 isolates; in µg/mL
Protocol: (§2) The assays were run as follows.
(§3) Both values, as well as the MIC range (the lowest and highest MIC value observed for a collection of organisms), were determined for the isolates listed in Table 3.

[6] = tested on: E. faecalis clinical isolates; assay: as above; assay type: cell-based; conditions: 24 isolates, in µg/mL
Protocol: as §2, §3

[7] = tested on: S. pneumoniae clinical isolates; assay: as above; assay type: cell-based; conditions: 19 isolates, in µg/mL
Protocol: as §2, §3

[8] = tested on: Staphylococcus aureus SA158, tetracycline-resistant tet(K); assay: MIC assay, SA158; assay type: cell-based; conditions: Table 8, read-out: MIC S. aureus tetK
[9] = tested on: Staphylococcus aureus SA161, HA-MRSA, tetracycline-resistant, tet(M); assay: MIC assay, SA161; assay type: cell-based; conditions: Table 8, read-out: MIC S. aureus MRSA, tetM
[10] = tested on: Enterococcus faecalis EF103, ATCC 29212; assay: MIC assay, EF103; assay type: cell-based; conditions: Enterococcus faecalis, ATCC29212; Table 8; read-out: MIC E. faecalis ATCC 29212
[11] = tested on: tet(K) strains of S. aureus; assay: MIC, CLSI methodology, recent clinical isolates (Example 21); assay type: cell-based; conditions: Staphylococcus aureus, read-out: MIC against tet(K) strains of S. aureus
Protocol: as §2
(§4) The antibacterial activities of Compounds MIC values were determined according to CLSI methodology. Recent clinical isolates were obtained from Eurofins-Medinet. Antibiotics were obtained from standard commercial sources.

[12] = tested on: tet(M) strains of S. aureus; assay: as above; assay type: cell-based; conditions: Staphylococcus aureus, read-out: MIC against tet(M) strains of S. aureus
Protocol: as §2, §4

[13] = tested on: tet(M) and tet(S) strains of E. faecalis; assay: as above; assay type: cell-based; conditions: Enterococcus faecalis, read-out: MIC against tet(M) and tet(S) strains of E. faecalis
Protocol: as §2, §4

[14] = tested on: tet(M) strains of S. pneumoniae; assay: as above; assay type: cell-based; conditions: Streptococcus pneumoniae, read-out: MIC against tet(M) strains of S. pneumoniae
Protocol: as §2, §4

[15] = tested on: E. coli DH10B(pBAD-tetK), expressing tet(K); assay: MIC against recombinant E. coli expressing tet(K); assay type: cell-based; conditions: for MIC: Escherichia coli; for MIC ratio, TetK induced to uninduced: ratio of TetK induced to uninduced MIC; for Effect of expression of (tet)K on activity: result in words
Text: as §1

[16] = tested on: Escherichia coli EC155, tetracycline-resistant, tet(A); assay: MIC assay, EC155; assay type: cell-based; conditions: Table 8, read-out: MIC E. coli tetA
[17] = tested on: Streptococcus pneumoniae SP160, tetracycline-resistant, tet(M); assay: MIC assay, SP160; assay type: cell-based; conditions: Table 8, read-out: MIC S. pneumoniae tetM
[18] = tested on: Enterococcus faecalis EF159, tetracycline-resistant, tet(M); assay: MIC assay, EF159; assay type: cell-based; conditions: Table 8, read-out: MIC E. faecalis tetM
[19] = tested on: Streptococcus pneumoniae SP106, ATCC 49619; assay: MIC assay, SP106; assay type: cell-based; conditions: ATCC49619, Table 8, read-out: MIC S. pneumoniae ATCC 49619

Structure (SMILES) | MIC ([1]; read-out: MIC, TetM induced) [mg/L] | MIC ([1]; read-out: MIC, Uninduced) [mg/L] | Ratio (TetM induced / Uninduced) [1] | Effect of expression of (tet)M on activity [1] | MIC [2] [mg/L] | MIC [3] [mg/L] | TnT IC50 [4] [mg/L] | IC50, in vitro transcription/translation system [4] [mg/L] | MIC Range [5] | MIC Range [6] | MIC Range [7] | MIC [8] [mg/L] | MIC [9] [mg/L] | MIC [10] [mg/L] | MIC [11] [mg/L] | MIC [12] [mg/L] | MIC [13] [mg/L] | MIC [14] [mg/L] | MIC ([15]; read-out: MIC, TetK Induced) [mg/L] | MIC ([15]; read-out: MIC, Uninduced) [mg/L] | further results
CN(C)[C@@H]1C(O)=C(C(N)=O)C(=O)[C@@]2(O)C(O)=C3C(=O)c4c(O)c(NCC(C)(C)CN5CCCC5)nc(Cl)c4C[C@H]3C[C@@H]12 [Compound 108] | 2 | 2 | 1 | minimally affected | 0.25 (≈ 0.414 µM) | 2 (≈ 3.31 µM) | 0.6 | 0.62 (≈ 1.03 µM) | 0.5-8 | 0.063-4 | <=0.016-0.13 | 0.13 (≈ 0.215 µM) | 2 (≈ 3.31 µM) | 0.5 (≈ 0.828 µM) | ≤ 1 | ≤ 8 | ≤ 4 | ≤ 0.25 | 2 | 4 | MIC ratio, TetK induced to uninduced [15]: 0.5; Effect of expression of (tet)K on activity [15]: unaffected; MIC [16]: 8 mg/L (≈ 13.2 µM); MIC [17]: 0.25 mg/L (≈ 0.414 µM); MIC [18]: 2 mg/L (≈ 3.31 µM); MIC [19]: 0.031 mg/L (≈ 0.0513 µM)
CN(C)CC(C)(C)CNc1nc(F)c2c(c1O)C(=O)C1=C(O)[C@]3(O)C(=O)C(C(N)=O)=C(O)[C@@H](N(C)C)[C@@H]3C[C@@H]1C2 [Compound 133] | 2 | 0.5 | 4 | minimally affected | 1 (≈ 1.78 µM) | 1 (≈ 1.78 µM) | 0.56 | 0.6 (≈ 1.07 µM) | 0.5-8 | 0.25-4 | <=0.016-0.25 | 0.5 (≈ 0.89 µM) | 2 (≈ 3.56 µM) | 0.5 (≈ 0.89 µM) | ≤ 1 | ≤ 8 | ≤ 4 | ≤ 0.25 | 1 | 2 | MIC ratio, TetK induced to uninduced [15]: 0.5; Effect of expression of (tet)K on activity [15]: unaffected; MIC [16]: 8 mg/L (≈ 14.2 µM); MIC [17]: 1 mg/L (≈ 1.78 µM); MIC [18]: 2 mg/L (≈ 3.56 µM); MIC [19]: 0.5 mg/L (≈ 0.89 µM)
